Source: PMC10341795, “N-Methyl Costaricine and Costaricine, Two Potent Butyrylcholinesterase Inhibitors from Alseodaphne pendulifolia Gamb” (International Journal of Molecular Sciences, 2023)
“Also recorded” adds a separate entry of the source. Read-outs that look alike come from different tables or passages of the source.

What was measured:
[1] = target: T1, BChE from equine serum (Equus caballus, UniProt P81908); test: biochemical; assay type: biochemical; conditions: for Selectivity Index BChE: IC50 (AChE)/IC50 (BChE); for BChE potency relative to galantamine: comparison of IC50 values; for Cholinesterase selectivity (in words): from selectivity indices, AChE vs BChE; for inhibition at 100 µM: read-out: Percentage Inhibition at 100 µM, BChE, 100 µM
T1 construct: AChE from Electrophorus electricus and BChE from equine serum were purchased from Sigma-Aldrich Co. LLC; purchased Sigma-Aldrich Co. LLC; (St. Louis, MO, USA); host or cells: equine serum
T1 sequence (P81908 whole entry): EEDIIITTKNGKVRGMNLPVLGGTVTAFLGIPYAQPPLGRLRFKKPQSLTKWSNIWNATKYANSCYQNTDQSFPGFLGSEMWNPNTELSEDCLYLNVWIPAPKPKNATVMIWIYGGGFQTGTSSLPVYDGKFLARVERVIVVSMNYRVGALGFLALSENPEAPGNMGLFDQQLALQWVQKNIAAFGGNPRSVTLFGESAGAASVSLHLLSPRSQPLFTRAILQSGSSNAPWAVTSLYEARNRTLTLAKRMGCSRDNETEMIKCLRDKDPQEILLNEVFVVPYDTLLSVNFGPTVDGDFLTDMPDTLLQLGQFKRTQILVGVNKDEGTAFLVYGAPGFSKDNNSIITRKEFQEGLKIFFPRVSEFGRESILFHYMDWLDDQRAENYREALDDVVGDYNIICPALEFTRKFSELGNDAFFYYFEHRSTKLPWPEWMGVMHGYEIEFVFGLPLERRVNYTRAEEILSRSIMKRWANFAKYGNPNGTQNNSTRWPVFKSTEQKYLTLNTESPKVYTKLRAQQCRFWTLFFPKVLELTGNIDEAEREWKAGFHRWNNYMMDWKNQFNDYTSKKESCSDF
Experimental: (§1) The cholinesterase inhibitory activities of the extracts and fompounds 1–6 were performed as previously described. AChE from Electrophorus electricus and BChE from equine serum were purchased from Sigma-Aldrich Co. LLC. (St. Louis, MO, USA). An amount of 0.1 M of sodium phosphate buffer (pH 8) was added to a 96-well microplate followed by the sample and 1U of the AChE or BChE. Then, 10 mM of 5,5′-dithiobis(2-nitrobenzoic acid) (DTNB) was added followed by 14 mM of acetylthiocholine iodide or S-butyrylthiocholine chloride. The final concentration of DMSO was 1%.

[2] = target: T2, AChE from Electrophorus electricus (Electrophorus electricus, UniProt O42275); test: biochemical; conditions: for Selectivity Index AChE: IC50 (BChE)/IC50 (AChE); for inhibition at 100 µM: read-out: Percentage Inhibition at 100 µM, AChE, 100 µM
T2 construct: purchased Sigma-Aldrich Co. LLC; (St. Louis, MO, USA)
T2 sequence (O42275 24-633): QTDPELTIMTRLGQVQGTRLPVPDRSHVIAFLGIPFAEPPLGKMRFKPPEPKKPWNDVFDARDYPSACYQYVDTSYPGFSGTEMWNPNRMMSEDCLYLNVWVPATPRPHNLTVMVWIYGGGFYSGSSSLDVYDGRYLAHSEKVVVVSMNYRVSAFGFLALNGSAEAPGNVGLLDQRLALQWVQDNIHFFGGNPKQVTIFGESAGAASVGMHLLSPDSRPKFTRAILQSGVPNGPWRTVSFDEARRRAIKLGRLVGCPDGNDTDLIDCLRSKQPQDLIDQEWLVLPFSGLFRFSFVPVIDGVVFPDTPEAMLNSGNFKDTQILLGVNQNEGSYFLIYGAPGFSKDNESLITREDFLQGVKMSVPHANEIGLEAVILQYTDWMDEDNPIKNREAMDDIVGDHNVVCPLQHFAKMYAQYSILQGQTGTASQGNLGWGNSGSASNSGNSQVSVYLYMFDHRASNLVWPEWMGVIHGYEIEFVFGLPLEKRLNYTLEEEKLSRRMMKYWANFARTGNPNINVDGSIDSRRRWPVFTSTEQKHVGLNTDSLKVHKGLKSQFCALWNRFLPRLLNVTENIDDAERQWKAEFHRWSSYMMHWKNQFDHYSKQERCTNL
Experimental: as §1

[3] = target: T3, BChE (Equus caballus, UniProt P81908); test: Enzyme kinetic study against BChE (Lineweaver-Burk and secondary plots); assay type: biochemical; conditions: for Mode of inhibition against BChE: Lineweaver-Burk plot
T3 construct: AChE from Electrophorus electricus and BChE from equine serum were purchased from Sigma-Aldrich Co. LLC; purchased Sigma-Aldrich Co. LLC; (St. Louis, MO, USA); host or cells: equine serum
T3 sequence (P81908 whole entry): as the sequence (P81908 whole entry) above
Experimental: as §1, with “1%. Galanthamine was used as the standard for validation and result comparison. The absorbance was measured using a Tecan Infinite 200 Pro Microplate Spectrometer at 412 nm for 30 min.” for “1%.”
The enzyme kinetic studies of compounds 1 and 2 against BChE were performed in a similar manner to the in vitro BChE inhibition assay. The enzyme inhibition kinetic was carried out in the presence of three concentrations of the inhibitors, compounds 1 and 2, at various concentrations of the substrate, S-butyrylthiocholine chloride by constructing a Lineweaver–Burk plot (reciprocal plots of 1/V versus 1/[S]). The inhibition constant (Ki) was estimated from the secondary plot of the Lineweaver–Burk plot.

SMILES | Selectivity Index BChE [1] | BChE potency relative to galantamine [1] | Cholinesterase selectivity (in words) [1] | IC50 ([1]; mean ± SD (n = 3), read-out: IC50 BChE) | Selectivity Index AChE [2] | IC50 ([2]; mean ± SD (n = 3), read-out: IC50 AChE) | inhibition at 100 µM ([2]; mean ± SD (n = 3)) | Mode of inhibition against BChE [3] | Ki ([3]; derived from secondary plots of Lineweaver-Burk plots, read-out: Inhibition constant Ki against BChE) | IC50 [1] | inhibition at 100 µM ([1]; mean ± SD (n = 3)) | IC50 [2] | Ki [3] | Fold higher affinity to BChE compared to compound 1 ([3]; ratio of Ki values)
COc1cc2c(cc1O)C(Cc1ccc(Oc3cc(CC4c5cc(O)c(OC)cc5CCN4C)ccc3OC)cc1)NCC2 (stereo not shown) [Compound 1, N-methyl costaricine] | 6.48 | two-fold more potent than galantamine | BChE selective inhibitors | 3.51 ± 0.8 µM | 0.15 | 22.8 ± 1.25 µM | > 70% | mixed-mode inhibitors; also recorded: mixed-mode inhibition | 0.67 µM | – | – | – | – | –
COc1cc2c3c(c1O)-c1c(ccc(OC)c1OC)C[C@@H]3N(C)CC2 [Compound 5, corydine] | – | – | – | – | – | – | 29.7 ± 1.85% | – | – | 52.9 ± 4.11 µM | 77.9 ± 1.73% | – | – | –
COc1ccc2c(c1OC)-c1c(OC)c(OC)cc3c1C(C2)NCC3 (stereo not shown) [Compound 3, hernagine] | – | – | – | – | – | – | < 10% | – | – | 32.9 ± 0.99 µM | 88.87 ± 0.56% | – | – | –
COc1ccc2c(c1OC)-c1c(OC)c(OC)cc3c1C(C2)N(C)CC3 (stereo not shown) [Compound 4, N-methyl hernagine] | – | – | – | – | – | – | 23.1 ± 8.39% | – | – | 49.7 ± 3.95 µM | 77.8 ± 3.73% | – | – | –
COc1cc2c(cc1O)[C@@H](Cc1ccc(Oc3cc(C[C@H]4NCCc5cc(OC)c(O)cc54)ccc3OC)cc1)NCC2 [Compound 2, costaricine] | 6.03 | two-fold more potent than galantamine | BChE selective inhibitors | – | 0.17 | – | > 70% | mixed-mode inhibitors; also recorded: mixed-mode inhibition | – | 2.9 ± 0.56 µM | – | 17.5 ± 2.16 µM | 0.05 µM | 13 fold
